# Assay results: US20080175837A1, “DPP4 INHIBITOR AND PHARMACEUTICAL USE THEREOF” (AJINOMOTO CO., INC, priority 2005, published 2008)
# Residues, ends and D or L forms follow the SMILES beside them.
# Columns and labels:
# rat hepatic cells = assay: Measurement of autophagy (proteolysis, valine release) by using rat hepatic cells; assay type: cell-based
# Experimental: Male Wistar rats of 140 to 180 g which were freely fed were used to prepare rat hepatic cells by the collagenase perfusion method (Seglen, P.O. Preparation of isolated liver cells. (1976) In Methods in Cell Biology eds. D. M. Prescott, 13, 29-83. Academic: New York/London). By this method, 2 to 2.5×10^8 cells of the hepatic cells per one individual's […] could be prepared.
# The protein decomposition (autophagy) of the prepared hepatic cells was determined by the method of Venerando, et al. Namely, the hepatic cells were put in a 10 mL flask with 3.5 mL of KRB buffer (24 mM bicarbonate, 6 mM glucose) to prepare a cell suspension (1 to 1.2×10^6 cells/mL). The solution was kept and left in 37° C. for 45 minutes in a carbon dioxide incubator. Then, various chemical treatments were conducted under the existence of 20 uM cycloheximide in order to stop the protein synthesis, and the solution was kept at 37° C. for […]. At each 31 minutes and 42 minutes, 0.35 mL of the hepatic cell suspension was taken out, and a perchloric acid cooled with ice (final concentration 6%) was added to the latter and preserved at −20° C. Valine in the supernatant of the acid-soluble fraction was measured, and valine release for 11 minutes was determined. […]
# [1] = target: T1, recombinant human dipeptidyl peptidase IV (rhDpp4) (Homo sapiens, UniProt P27487); assay: Inhibiting activity against rhDpp4 (G-P-pNA cleavage, absorbance at 405 nm); assay type: biochemical
# T1 construct: purchased R&D Systems 1180-SE
# T1 sequence (P27487 whole entry): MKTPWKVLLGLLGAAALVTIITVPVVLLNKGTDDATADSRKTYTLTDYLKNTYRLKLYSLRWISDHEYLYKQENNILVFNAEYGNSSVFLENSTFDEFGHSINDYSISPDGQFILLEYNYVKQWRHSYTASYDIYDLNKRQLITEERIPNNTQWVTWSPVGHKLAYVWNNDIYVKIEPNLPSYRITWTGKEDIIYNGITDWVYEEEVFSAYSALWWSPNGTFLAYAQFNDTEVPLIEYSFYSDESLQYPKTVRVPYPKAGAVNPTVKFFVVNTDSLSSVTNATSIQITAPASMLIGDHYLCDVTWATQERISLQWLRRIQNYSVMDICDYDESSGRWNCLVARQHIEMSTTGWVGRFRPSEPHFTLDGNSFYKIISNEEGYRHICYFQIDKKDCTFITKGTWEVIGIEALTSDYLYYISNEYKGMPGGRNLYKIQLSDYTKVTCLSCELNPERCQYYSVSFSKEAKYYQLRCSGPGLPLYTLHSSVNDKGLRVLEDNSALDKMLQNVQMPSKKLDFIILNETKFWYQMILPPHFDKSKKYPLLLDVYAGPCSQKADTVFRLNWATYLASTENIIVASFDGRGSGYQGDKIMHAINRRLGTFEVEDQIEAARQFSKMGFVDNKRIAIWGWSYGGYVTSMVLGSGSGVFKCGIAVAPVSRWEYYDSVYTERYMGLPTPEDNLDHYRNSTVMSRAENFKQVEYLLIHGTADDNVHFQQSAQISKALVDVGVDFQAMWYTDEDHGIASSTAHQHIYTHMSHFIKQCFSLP
# Experimental: The inhibiting activity of each test compound was determined against the cleaving activity of GLY-PRO-p-nitroanihde (G-P-pNA, by Sigma, #G-0513), which is a synthetic substrate of recombinant human dipeptidyl peptidase IV (rhDpp4, by R&D Systems, #1180-SE). G-P-pNA was cleaved between PRO and pNA by rhDpp4. Since pNA is absorbed at 405 nm, the value thereof was measured to determine the cleavage amount.
# The reaction solution (25 mM Tris (pH8.0), 100 uM G-P-pNA, 0.25 ng/ul rhDPP4) was prepared and added to the test compound so that the final concentration of the test compound became 2 mM (1% DMSO concentration). The reaction solution was kept in 37° C. for 30 minutes. After that, the absorbance at 405 nm was measured at once by a spectrophotometer. The reaction was conducted in 200 ul scale with a 96-well microplate.
# At the same time, the absorbance at 405 nm of each 100, 33, 11, 3.7, 1.2, 0.41, and 0.14 uM pNA solution was measured to obtain the relational formula of pNA concentration and absorbance, and the pNA amount (the substrate cleavage amount) in each reaction solution was calculated.
# As for the inhibition rate, 3 to 4 wells without the test compound were prepared in the same plate. Then, the inhibition rate was calculated and shown in percentage by using the following formula from the proportion of the substrate cleavage amount (B) of the well to which each test compound was added to the average amount (A) of the substrate cleavage amount of the well without the test compound.
# Inhibition rate (%)=100×(1−(B)/(A))
# [2] = target: T2, p103 (rat dipeptidyl peptidase IV, DPP4) (Rattus norvegicus, UniProt P14740); assay: Bond of Leu8-MAP to leucine binding protein p103 on the hepatocyte membrane, competition by free amino acids; details: excess free amino acid
# T2 construct: from tissue; host or cells: rat hepatocyte membrane
# T2 sequence (P14740 whole entry): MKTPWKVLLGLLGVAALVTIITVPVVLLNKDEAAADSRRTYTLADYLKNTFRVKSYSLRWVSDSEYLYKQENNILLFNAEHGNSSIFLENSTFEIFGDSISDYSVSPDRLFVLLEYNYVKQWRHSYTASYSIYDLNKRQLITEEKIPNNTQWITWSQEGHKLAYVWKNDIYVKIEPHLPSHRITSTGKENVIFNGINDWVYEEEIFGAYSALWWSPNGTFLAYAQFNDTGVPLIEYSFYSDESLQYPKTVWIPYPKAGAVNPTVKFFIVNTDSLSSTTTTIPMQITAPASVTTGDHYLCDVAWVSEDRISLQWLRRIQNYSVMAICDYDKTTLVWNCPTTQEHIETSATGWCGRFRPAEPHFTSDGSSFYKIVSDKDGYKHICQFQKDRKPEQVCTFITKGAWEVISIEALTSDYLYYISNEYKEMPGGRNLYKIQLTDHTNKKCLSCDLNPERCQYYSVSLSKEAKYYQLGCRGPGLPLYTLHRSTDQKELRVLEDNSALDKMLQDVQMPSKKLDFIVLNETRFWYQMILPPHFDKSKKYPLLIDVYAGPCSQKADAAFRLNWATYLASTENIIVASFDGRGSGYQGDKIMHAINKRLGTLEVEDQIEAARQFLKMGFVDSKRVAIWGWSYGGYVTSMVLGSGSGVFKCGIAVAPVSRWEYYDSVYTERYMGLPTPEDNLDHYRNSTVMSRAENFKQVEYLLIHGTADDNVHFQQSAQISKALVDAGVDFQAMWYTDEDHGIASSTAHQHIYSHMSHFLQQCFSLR
# From the text: In order to solve the above problems, the inventors attempted to identify leucine binding protein that exists on the membrane of rat hepatic cells by using a membrane-impermeable leucine derivative (Leu8-MAP). As a result of the thorough search, they found a molecular weight of 103-kilodalton leucine-specific binding protein (p103) on the hepatocyte membrane. Though the bond of Leu8-MAP to p103 was inhibited by excess free leucine, it was not inhibited by isoleucine or valine. Therefore, p103 was protein that selectively bonds to leucine. Further, as a result of various examinations on the condition for purifying p103 from the hepatocyte membrane, they succeeded in isolating the above protein by purification and detected it as a single band protein by SDS-PAGE electrophoresis. This band was cleaved from the gel, and peptide fragmentation was conducted thereto by the in-gel reduction/alkylation and the enzyme digestion. Then, the mass spectrometry was conducted by providing the fragment with the equipment wherein a nanoHPLC system (Ultimate: Nippon Dionex K.K.) was connected to an ion trap mass spectrometer (LCQ: Thermo Electron Co., Ltd.). The obtained data was identified with a database search system (Mascot: Matrix Science, Ltd.). MSDB (Jan. 6, 2004 ver. by Matrix Science, Ltd.) was used as the sequence database for search. As a result, rat dipeptidyl peptidase IV (DPP4: EC 3.4.14.5) could be identified at a high score.
Structure (SMILES),"Dpp4 inhibiting activity among 20 kinds of amino acids (FIG. 2, substrate cleavage rate), in words [1]","inhibition of the bond of Leu8-MAP to p103, in words [2]",other results
"CC(C)C[C@H](N)C(=O)O [Leucine, L-leucine]",has the Dpp4 inhibiting activity,inhibited,"effect on autophagy induced by amino acid starvation, in words (rat hepatic cells): strongly inhibits autophagy; Inhibition of proteolysis (%) (rat hepatic cells; starvation induced proteolysis, 20 uM cycloheximide, valine release for 11 minutes): 27.9%; concentration-dependent Dpp4 inhibiting activity (FIG. 1), in words ([1]; FIG. 1): inhibits Dpp4"
CC(C)[C@H](N)C(=O)O [valine],,not inhibited,
CC[C@H](C)[C@H](N)C(=O)O [isoleucine],,not inhibited,
"CSCC[C@H](N)C(=O)O [Met, L-methionine]",has the Dpp4 inhibiting activity,,
"CC(C)C[C@H](NC(=O)[C@@H](N)CCCCN)C(=O)O [R1=L-Lys, R2=OH, Lys-Leu] (H-Lys-Leu-OH)",,,"Inhibition rate (%) ([1]; test compound 2 mM, 100 uM G-P-pNA, 0.25 ng/ul rhDPP4, 37° C. for 30 minutes): 38.4%"
